ChEMBL document CHEMBL1201862, “PubChem BioAssay data set” (2004)
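All cell lines were grown in 96-well plates and treated with compound for 48 hours. GI50 = concentration required for 50% inhibition of growth.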 Activity calls are given as the source filed them. Rule as the data show it: active = GI50 up to about 1.1 µM and inactive = higher.

Legend:
Test in all cases: NCI tumour cell line growth inhibition, 48 h
786-0 = tested on: 786-0
A498 = tested on: A498
A549 = tested on: A549
ACHN = tested on: ACHN
CAKI-1 = tested on: CAKI-1
CCRF-CEM = tested on: CCRF-CEM
COLO 205 = tested on: COLO 205
DLD-1 = tested on: DLD-1
DMS-114 = tested on: DMS-114
DMS-273 = tested on: DMS-273
EKVX = tested on: EKVX
HCC 2998 = tested on: HCC 2998
HCT-116 = tested on: HCT-116
HCT-15 = tested on: HCT-15
HL-60 = tested on: HL-60
HOP-18 = tested on: HOP-18
HOP-62 = tested on: HOP-62
HOP-92 = tested on: HOP-92
HT-29 = tested on: HT-29
IGROV-1 = tested on: IGROV-1
K562 = tested on: K562
KM-20L2 = tested on: KM-20L2
KM12 = tested on: KM12
LXFL 529 = tested on: LXFL 529
M14 = tested on: M14
M19-MEL = tested on: M19-MEL
MOLT-4 = tested on: MOLT-4
Malme-3M = tested on: Malme-3M
NCI-H226 = tested on: NCI-H226
NCI-H23 = tested on: NCI-H23
NCI-H460 = tested on: NCI-H460
NCI-H522 = tested on: NCI-H522
OVCAR-3 = tested on: OVCAR-3
OVCAR-4 = tested on: OVCAR-4
OVCAR-5 = tested on: OVCAR-5
OVCAR-8 = tested on: OVCAR-8
RPMI-8226 = tested on: RPMI-8226
RXF 631 = tested on: RXF 631
SF-268 = tested on: SF-268
SF-295 = tested on: SF-295
SF-539 = tested on: SF-539
SK-MEL-28 = tested on: SK-MEL-28
SK-MEL-2 = tested on: SK-MEL-2
SK-MEL-5 = tested on: SK-MEL-5
SK-OV-3 = tested on: SK-OV-3
SN12C = tested on: SN12C
SNB-19 = tested on: SNB-19
SNB-75 = tested on: SNB-75
SR = tested on: SR
SW-620 = tested on: SW-620
TK-10 = tested on: TK-10
U-251 = tested on: U-251
UACC-257 = tested on: UACC-257
UACC-62 = tested on: UACC-62
UO-31 = tested on: UO-31
XF498 = tested on: XF498
LOX IMVI = tested on: LOX IMVI
RXF 393 = tested on: RXF 393

N#CC(/C(=N/NC(N)=S)C(=O)Nc1cccc(Cl)c1)c1ccccc1 (stereo unspecified)
GI50 (786-0): > 100 µM (inactive) | GI50 (A498): > 100 µM (inactive) | GI50 (A549): > 100 µM (inactive) | GI50 (ACHN): > 100 µM (inactive) | GI50 (CAKI-1): > 100 µM (inactive) | GI50 (CCRF-CEM): > 100 µM (inactive) | GI50 (COLO 205): > 100 µM (inactive) | GI50 (DLD-1): > 100 µM (inactive) | GI50 (DMS-114): > 100 µM (inactive) | GI50 (DMS-273): > 100 µM (inactive) | GI50 (EKVX): > 100 µM (inactive) | GI50 (HCC 2998): > 100 µM (inactive) | GI50 (HCT-116): > 100 µM (inactive) | GI50 (HCT-15): > 100 µM | GI50 (HL-60): > 100 µM (inactive) | GI50 (HOP-18): > 100 µM (inactive) | GI50 (HOP-62): > 100 µM (inactive) | GI50 (HOP-92): > 100 µM (inactive) | GI50 (HT-29): > 100 µM (inactive) | GI50 (IGROV-1): > 100 µM (inactive) | GI50 (K562): > 100 µM (inactive) | GI50 (KM-20L2): > 100 µM (inactive) | GI50 (KM12): > 100 µM (inactive) | GI50 (LXFL 529): > 100 µM (inactive) | GI50 (M14): > 100 µM (inactive) | GI50 (M19-MEL): > 100 µM (inactive) | GI50 (MOLT-4): > 100 µM (inactive) | GI50 (Malme-3M): > 100 µM (inactive) | GI50 (NCI-H226): > 100 µM (inactive) | GI50 (NCI-H23): > 100 µM (inactive) | GI50 (NCI-H460): > 100 µM (inactive) | GI50 (NCI-H522): > 100 µM (inactive) | GI50 (OVCAR-3): > 100 µM (inactive) | GI50 (OVCAR-4): > 100 µM (inactive) | GI50 (OVCAR-5): > 100 µM (inactive) | GI50 (OVCAR-8): > 100 µM (inactive) | GI50 (RPMI-8226): > 100 µM (inactive) | GI50 (RXF 631): > 100 µM (inactive) | GI50 (SF-268): > 100 µM (inactive) | GI50 (SF-295): > 100 µM (inactive) | GI50 (SF-539): > 100 µM (inactive) | GI50 (SK-MEL-28): > 100 µM (inactive) | GI50 (SK-MEL-2): > 100 µM (inactive) | GI50 (SK-MEL-5): > 100 µM (inactive) | GI50 (SK-OV-3): > 100 µM (inactive) | GI50 (SN12C): > 100 µM (inactive) | GI50 (SNB-19): > 100 µM (inactive) | GI50 (SNB-75): 38.8 µM (inactive) | GI50 (SR): > 100 µM (inactive) | GI50 (SW-620): > 100 µM (inactive) | GI50 (TK-10): > 100 µM (inactive) | GI50 (U-251): > 100 µM (inactive) | GI50 (UACC-257): > 100 µM (inactive) | GI50 (UACC-62): > 100 µM (inactive) | GI50 (UO-31): > 100 µM (inactive) | GI50 (XF498): > 100 µM (inactive)

COc1ccc2[nH]c3c(c2c1)[C@H](C)C[C@@H]1C(=O)N(c2ccccc2)C(=O)[C@H]31
GI50 (786-0): 22.8 µM (inactive) | GI50 (A498): 20.6 µM (inactive) | GI50 (A549): 27.4 µM (inactive) | GI50 (ACHN): 37.8 µM (inactive) | GI50 (CAKI-1): 33 µM (inactive) | GI50 (CCRF-CEM): 32.5 µM (inactive) | GI50 (COLO 205): 51.3 µM (inactive) | GI50 (DLD-1): 43.3 µM (inactive) | GI50 (DMS-114): 33.8 µM (inactive) | GI50 (DMS-273): 37.8 µM (inactive) | GI50 (EKVX): 23.9 µM (inactive) | GI50 (HCC 2998): 39.4 µM (inactive) | GI50 (HCT-116): 20.3 µM (inactive) | GI50 (HCT-15): 35.2 µM | GI50 (HL-60): > 100 µM (inactive) | GI50 (HOP-18): 20.9 µM (inactive) | GI50 (HOP-62): 24 µM (inactive) | GI50 (HOP-92): 14.9 µM (inactive) | GI50 (IGROV-1): 31.8 µM (inactive) | GI50 (K562): 46 µM (inactive) | GI50 (KM-20L2): 62.8 µM (inactive) | GI50 (KM12): 17.8 µM (inactive) | GI50 (LOX IMVI): 25.2 µM (inactive) | GI50 (LXFL 529): 29.6 µM (inactive) | GI50 (M14): 35.6 µM (inactive) | GI50 (M19-MEL): 36.7 µM (inactive) | GI50 (MOLT-4): 20.6 µM (inactive) | GI50 (Malme-3M): 26.6 µM (inactive) | GI50 (NCI-H23): 22.3 µM (inactive) | GI50 (NCI-H460): 26.2 µM (inactive) | GI50 (NCI-H522): 16.1 µM (inactive) | GI50 (OVCAR-3): 24 µM (inactive) | GI50 (OVCAR-4): 20.7 µM (inactive) | GI50 (OVCAR-5): 91.8 µM (inactive) | GI50 (OVCAR-8): 17.8 µM (inactive) | GI50 (RXF 393): 29.6 µM (inactive) | GI50 (RXF 631): 20.5 µM (inactive) | GI50 (SF-268): 26.6 µM (inactive) | GI50 (SF-295): 26 µM (inactive) | GI50 (SF-539): 21.2 µM (inactive) | GI50 (SK-MEL-28): > 100 µM (inactive) | GI50 (SK-MEL-2): 42.7 µM (inactive) | GI50 (SK-MEL-5): 39.4 µM (inactive) | GI50 (SK-OV-3): 20.5 µM (inactive) | GI50 (SN12C): 27.1 µM (inactive) | GI50 (SNB-19): 29.4 µM (inactive) | GI50 (SNB-75): 21.4 µM (inactive) | GI50 (SR): 26.2 µM (inactive) | GI50 (SW-620): 32.4 µM (inactive) | GI50 (TK-10): 31.3 µM (inactive) | GI50 (U-251): 15.5 µM (inactive) | GI50 (UACC-257): 56.1 µM (inactive) | GI50 (UACC-62): 44.1 µM (inactive) | GI50 (UO-31): 36.2 µM (inactive) | GI50 (XF498): 24.5 µM (inactive)
